Publication PMC6662706, “Short amylin receptor antagonist peptides improve memory deficits in Alzheimer’s disease mouse model” (Scientific Reports, 2019)
No end group written: not given here.

Experiments:
[1] = Brain uptake of R5 compared with davalintide, wild-type and het CTR mice; assay type: in vivo, mouse; settings: mouse, not told, ip
Experimental: For peptide R5 brain uptake in comparison to Davlintide, wild-type littermate (C57BL/6 background) mice and heterozygous CTR knockdown mice (50% CTR expression level compared to wild type control mice and presumably with 50% AMY receptor expression level) was used (n=5 in each group). Mouse brains were extracted after 2h from a single injection and fluorescence in brains was quantified as mentioned above.
Supplementary Figure S3: The comparison of brain permeability for R5 and Davalintide.

[2] = Observation for off-target effects and body weight during 5 weeks of treatment; assay type: in vivo, mouse; settings: mice
Experimental: The determination of injection amount of R5 (200 µg/kg) was based on achieving equimolar concentrations as the full length peptide, cAC253[21] and prior studies that used pramlintide injections[22],[23]. The normal mouse circulated endogenous amylin level is 0.7 ± 0.4 pmol/L in plasma[32] and based upon our in vitro data (Fig. 1E) unlikely to perturb the function of peptides in vivo at these concentrations.

SQELHRLQTYPR-NH2 [R5]
brain permeability, R5 versus davalintide [1]: greater brain permeability
body weight ([2]; 5 weeks of ip treatment): no significant changes in body weight
signs of off-target effects (sedation, gait, feeding or drinking, weight loss, hair loss, grooming) ([2]; 5 weeks of ip treatment three times a week): None of the mice receiving cAC253 or R5 showed any signs of off-target effects
